Measurements reported in publication PMC10112521, “High-throughput AR dimerization assay identifies androgen disrupting chemicals and metabolites” (Frontiers in Toxicology, 2023).
Where a name gives a salt, the structure may show the parent alone.

Tested on: AR2 cells (HepG2-AR2)
Assay: Alamar Blue (resazurin) post hoc cell viability / cytotoxicity assay in AR2 cells
Conditions: spid Viability, sheet antagonist_fits; for hill_tp (Hill model top): 0 where win_model is Constant
Procedure: For antagonist mode and cytotoxicity data, well-level normalized response (resp) was calculated as: resp=100 * RLU−bval/pval−bval where pval is the median RLU value of the MEC positive control wells (minimum four wells).

Compound	max_med (maximum median response)	hill_tp (Hill model top)
CC/C(=C(/CC)c1ccc(O)cc1)c1ccc(O)cc1 [Diethylstilbestrol]	99.7753	119.773
O=C(c1ccc(OCCN2CCCCC2)cc1)c1c(-c2ccc(O)cc2)sc2cc(O)ccc12 [Raloxifene hydrochloride]	99.7657	–
CCCCCCOC(=O)c1ccccc1C(=O)OCCCCCC [Dihexyl phthalate]	14.953	18.2229
COP(=S)(OC)Oc1nc(Cl)c(Cl)cc1Cl [Chlorpyrifos-methyl]	15.7636	36.973
CC(C)Oc1cccc(NC(=O)c2ccccc2C(F)(F)F)c1 [Flutolanil]	9.82	12.8643
CCCCCCCCCc1ccc(O)cc1 [4-Nonylphenol]	99.78	100.689
O=S(=O)(c1ccc(O)cc1)c1ccc(O)cc1 [4,4'-Sulfonyldiphenol]	24.7063	39.4827
Oc1c(Cl)c(Cl)c(Cl)c(Cl)c1Cl [Pentachlorophenol]	53.4588	63.2778
CCCCC(CC)COC(=O)c1ccc(O)cc1 (centres unmarked) [2-Ethylhexylparaben]	99.7953	102.21
CCC(C)(C)c1ccc(O)cc1 [4-(2-Methylbutan-2-yl)phenol]	17.1743	12.5636
Cc1c(COC(=O)[C@@H]2[C@H](/C=C(\Cl)C(F)(F)F)C2(C)C)cccc1-c1ccccc1 (racemic) [Bifenthrin]	19.5548	23.386
CC(C)[C@H](C(=O)O[C@H](C#N)c1cccc(Oc2ccccc2)c1)c1ccc(Cl)cc1 [Esfenvalerate]	-0.2527	–
C[Si]1(C)O[Si](C)(C)O[Si](C)(C)O[Si](C)(C)O1 [Octamethylcyclotetrasiloxane]	28.4969	38.8496
Clc1ccc(C(c2ccc(Cl)cc2)C(Cl)(Cl)Cl)cc1 [Dichlorodiphenyltrichloroethane]	73.7925	94.5035
COP(=O)(NC(C)=O)SC (centres unmarked) [Acephate]	10.7949	0
O=C1C(Cl)=C(Cl)C(=O)c2ccccc21 [Dichlone, dichlone]	100	121.536
O=C(c1ccccc1)c1ccc(O)cc1O [2,4-Dihydroxybenzophenone]	13.9578	7.468
O=C(OC1CCCCC1)c1ccccc1C(=O)OC1CCCCC1 [Dicyclohexyl phthalate]	-2.0313	–
CCCCC(CC)COC(=O)c1ccccc1C(=O)O (centres unmarked) [Mono(2-ethylhexyl) phthalate]	10.2899	5.023
CCCCCCCCCCCCc1ccc(O)cc1 [4-Dodecylphenol]	99.7202	99.8404
CCCCCOC(=O)c1ccccc1C(=O)OCCCCC [Dipentyl phthalate]	14.047	13.5743
CCc1cccc(C)c1N(C(=O)CCl)C(C)COC (centres unmarked) [Metolachlor]	26.908	20.923
C[C@]12C[C@H](O)[C@H]3[C@@H](CCC4=CC(=O)CC[C@@]43C)[C@@H]1CC[C@@H]2C(=O)CO [Corticosterone]	-0.2958	–
Abamectin	81.1222	–

Compound	max_med (maximum median response)	hill_tp (Hill model top)
C#CC(C)(C)NC(=O)c1cc(Cl)cc(Cl)c1 [Propyzamide]	10.1701	0
O=c1oc2cc(O)ccc2c2oc3cc(O)ccc3c12 [Coumestrol]	39.9111	51.0591
CSc1nnc(C(C)(C)C)c(=O)n1N [Metribuzin]	29.1814	43.0001
COCC(=O)N(c1c(C)cccc1C)C(C)C(=O)OC (centres unmarked) [Metalaxyl]	11.6523	11.8758
CC(C)C(C(=O)OC(C#N)c1cccc(Oc2ccccc2)c1)c1ccc(Cl)cc1 (centres unmarked) [Fenvalerate]	17.5112	13.0316
COP(=S)(OC)SCN1C(=O)c2ccccc2C1=O [Phosmet]	21.0825	27.9412
CCCCC(CC)CN1C(=O)[C@@H]2[C@H](C1=O)[C@@H]1C=C[C@H]2C1 (some centres unmarked) [Octylbicycloheptenedicarboximide]	1.86	0
N#Cc1c(Cl)c(Cl)c(Cl)c(C#N)c1Cl [Chlorothalonil]	85.6054	117.241
CCCCC(CC)COC(=O)CCCCC(=O)OCC(CC)CCCC (centres unmarked) [Bis(2-ethylhexyl)hexanedioate]	8.67	0
CC(C)=CC1C(C(=O)OCc2cccc(Oc3ccccc3)c2)C1(C)C (centres unmarked) [Phenothrin]	11.6591	28.3579
CCOP(=S)(OCC)Oc1cc(C)nc(C(C)C)n1 [Diazinon]	6.875	0
CC(C)(C#N)c1cc(Cn2cncn2)cc(C(C)(C)C#N)c1 [Anastrozole]	9.832	0
C#C[C@]1(O)CC[C@H]2[C@@H]3CCC4=Cc5oncc5C[C@]4(C)[C@H]3CC[C@@]21C [Danazol]	99.6979	119.707
O=c1c(O)c(-c2ccc(O)cc2)oc2cc(O)cc(O)c12 [Kaempferol]	36.6036	30.9927
CCCCC(CC)COC(=O)c1ccccc1C(=O)OCC(CC)CCCC (centres unmarked) [Bis(2-ethylhexyl)phthalate]	27.6798	16.491
CCC[CH2][Sn]([Cl])([CH2]CCC)[CH2]CCC [Tributylchlorostannane]	99.8606	99.7567
CCCCN(CC)c1c([N+](=O)[O-])cc(C(F)(F)F)cc1[N+](=O)[O-] [Benfluralin]	17.0663	11.4566
C[C@]12CC[C@@H]3c4ccc(O)cc4CC[C@H]3[C@@H]1CC[C@@H]2O [17beta-Estradiol]	11.6181	15.1874
COP(=S)(OC)Oc1ccc(SC)c(C)c1 [Fenthion]	20.1632	17.5948
CCCCCC(=O)O[C@]1(C(C)=O)CC[C@H]2[C@@H]3CCC4=CC(=O)CC[C@]4(C)[C@H]3CC[C@@]21C [Hydroxyprogesterone caproate]	-5.885	–
Clc1ccc(Cl)cc1 [p-Dichlorobenzene]	4.77	–
CC(C)(C)C(O)(CCc1ccc(Cl)cc1)Cn1cncn1 (centres unmarked) [Tebuconazole]	20.78	45.6531
O=C(O)c1ccc(O)cc1 [4-Hydroxybenzoic acid]	5.145	0
C#C[C@]1(O)CC[C@H]2[C@@H]3CCc4cc(O)ccc4[C@H]3CC[C@@]21C [17alpha-Ethinylestradiol]	47.5761	60.3321
